Data taken from PubChem BioAssay (NCI).
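Method: 48-hour compound exposure of cells in 96-well plates, five concentrations, linear interpolation of endpoints. Here, GI50 denotes the concentration required for 50% inhibition of growth. The concentration for full growth arrest is given as TGI.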

Legend:
Experiment in all cases: NCI anticancer screen, dose series, 48 h
SN12C renal = test system: SN12C renal
MDA-MB-231 breast = test system: MDA-MB-231 breast
NCI/ADR-RES ovarian = test system: NCI/ADR-RES ovarian
A549 NSCLC = test system: A549 NSCLC
SK-MEL-2 melanoma = test system: SK-MEL-2 melanoma
NCI-H460 lung = test system: NCI-H460 lung
UACC-257 melanoma = test system: UACC-257 melanoma
RXF 393 renal = test system: RXF 393 renal
ACHN renal = test system: ACHN renal
K-562 leukemia = test system: K-562 leukemia
PC-3 prostate = test system: PC-3 prostate
HOP-62 NSCLC = test system: HOP-62 NSCLC
LOX IMVI melanoma = test system: LOX IMVI melanoma
HCC-2998 colon = test system: HCC-2998 colon
EKVX NSCLC = test system: EKVX NSCLC
HT29 colon = test system: HT29 colon
SNB-19 CNS = test system: SNB-19 CNS
OVCAR-5 ovarian = test system: OVCAR-5 ovarian
786-0 renal = test system: 786-0 renal
SW-620 colon = test system: SW-620 colon
SF-268 CNS = test system: SF-268 CNS
MCF7 breast = test system: MCF7 breast
A498 renal = test system: A498 renal
SK-MEL-28 melanoma = test system: SK-MEL-28 melanoma
NCI-H522 lung = test system: NCI-H522 lung
NCI-H226 lung = test system: NCI-H226 lung
BT-549 breast = test system: BT-549 breast
T-47D breast = test system: T-47D breast
OVCAR-8 ovarian = test system: OVCAR-8 ovarian
SF-539 CNS = test system: SF-539 CNS
M14 melanoma = test system: M14 melanoma
DU-145 prostate = test system: DU-145 prostate
TK-10 renal = test system: TK-10 renal
U251 CNS = test system: U251 CNS
HCT-116 colon = test system: HCT-116 colon
MDA-MB-435 = test system: MDA-MB-435
SF-295 CNS = test system: SF-295 CNS
CAKI-1 renal = test system: CAKI-1 renal
SK-OV-3 ovarian = test system: SK-OV-3 ovarian
HS 578T breast = test system: HS 578T breast
OVCAR-3 ovarian = test system: OVCAR-3 ovarian
UACC-62 melanoma = test system: UACC-62 melanoma
RPMI-8226 leukemia = test system: RPMI-8226 leukemia
NCI-H23 lung = test system: NCI-H23 lung
HCT-15 colon = test system: HCT-15 colon
CCRF-CEM leukemia = test system: CCRF-CEM leukemia
MOLT-4 leukemia = test system: MOLT-4 leukemia
HOP-92 NSCLC = test system: HOP-92 NSCLC
OVCAR-4 ovarian = test system: OVCAR-4 ovarian
IGROV1 ovarian = test system: IGROV1 ovarian
COLO 205 colon = test system: COLO 205 colon
MALME-3M melanoma = test system: MALME-3M melanoma
SNB-75 CNS = test system: SNB-75 CNS
UO-31 renal = test system: UO-31 renal
SK-MEL-5 melanoma = test system: SK-MEL-5 melanoma
KM12 colon = test system: KM12 colon

SMILES: CCCCCCC#CC#Cc1cccc(=O)o1
- GI50 (SN12C renal): 1.31 µM
- TGI (SN12C renal): 2.97 µM
- GI50 (MDA-MB-231 breast): 1.64 µM
- TGI (MDA-MB-231 breast): 3.72 µM
- GI50 (NCI/ADR-RES ovarian): 2.59 µM
- TGI (NCI/ADR-RES ovarian): 15.7 µM
- GI50 (A549 NSCLC): 9.24 µM
- TGI (A549 NSCLC): 30.7 µM
- GI50 (SK-MEL-2 melanoma): 9.27 µM
- TGI (SK-MEL-2 melanoma): > 100 µM
- GI50 (NCI-H460 lung): 8.14 µM
- TGI (NCI-H460 lung): 47.9 µM
- GI50 (UACC-257 melanoma): 2.21 µM
- TGI (UACC-257 melanoma): 7.87 µM
- GI50 (RXF 393 renal): 1.72 µM
- TGI (RXF 393 renal): 4.65 µM
- GI50 (ACHN renal): 1.84 µM
- TGI (ACHN renal): 3.96 µM
- GI50 (K-562 leukemia): 7.33 µM
- TGI (K-562 leukemia): > 100 µM
- GI50 (PC-3 prostate): 2.67 µM
- TGI (PC-3 prostate): 8.36 µM
- GI50 (HOP-62 NSCLC): 2.65 µM
- TGI (HOP-62 NSCLC): 8.48 µM
- GI50 (LOX IMVI melanoma): 0.122 µM
- TGI (LOX IMVI melanoma): 0.43 µM
- GI50 (HCC-2998 colon): 2.52 µM
- TGI (HCC-2998 colon): 6.12 µM
- GI50 (EKVX NSCLC): 13.8 µM
- TGI (EKVX NSCLC): 31.7 µM
- GI50 (HT29 colon): 3.69 µM
- TGI (HT29 colon): 34.6 µM
- GI50 (SNB-19 CNS): 25.6 µM
- TGI (SNB-19 CNS): 45.9 µM
- GI50 (OVCAR-5 ovarian): 2.25 µM
- TGI (OVCAR-5 ovarian): 4.95 µM
- GI50 (786-0 renal): 0.991 µM
- TGI (786-0 renal): 2.72 µM
- GI50 (SW-620 colon): 0.974 µM
- TGI (SW-620 colon): 2.78 µM
- GI50 (SF-268 CNS): 2.69 µM
- TGI (SF-268 CNS): 11.9 µM
- GI50 (MCF7 breast): 2.22 µM
- TGI (MCF7 breast): 22.3 µM
- GI50 (A498 renal): 14.9 µM
- TGI (A498 renal): 29.1 µM
- GI50 (SK-MEL-28 melanoma): 3.22 µM
- TGI (SK-MEL-28 melanoma): 10.7 µM
- GI50 (NCI-H522 lung): 1.8 µM
- TGI (NCI-H522 lung): 27.8 µM
- GI50 (NCI-H226 lung): 2.07 µM
- TGI (NCI-H226 lung): 4.7 µM
- GI50 (BT-549 breast): 0.556 µM
- TGI (BT-549 breast): 2.7 µM
- GI50 (T-47D breast): 16.6 µM
- TGI (T-47D breast): 57.2 µM
- GI50 (OVCAR-8 ovarian): 1.14 µM
- TGI (OVCAR-8 ovarian): 5.47 µM
- GI50 (SF-539 CNS): 3.19 µM
- TGI (SF-539 CNS): 12 µM
- GI50 (M14 melanoma): 0.878 µM
- TGI (M14 melanoma): 2.8 µM
- GI50 (DU-145 prostate): 3.31 µM
- TGI (DU-145 prostate): 8.26 µM
- GI50 (TK-10 renal): 2.67 µM
- TGI (TK-10 renal): 8.23 µM
- GI50 (U251 CNS): 2.07 µM
- TGI (U251 CNS): 4.92 µM
- GI50 (HCT-116 colon): 0.985 µM
- TGI (HCT-116 colon): 2.34 µM
- GI50 (MDA-MB-435): 1.39 µM
- TGI (MDA-MB-435): 3.28 µM
- GI50 (SF-295 CNS): 6.75 µM
- TGI (SF-295 CNS): 22.4 µM
- GI50 (CAKI-1 renal): 3.4 µM
- TGI (CAKI-1 renal): 9.2 µM
- GI50 (SK-OV-3 ovarian): 23.8 µM
- TGI (SK-OV-3 ovarian): > 70 µM
- GI50 (HS 578T breast): 1.99 µM
- TGI (HS 578T breast): 6.49 µM
- GI50 (OVCAR-3 ovarian): 2.04 µM
- TGI (OVCAR-3 ovarian): 4.8 µM
- GI50 (UACC-62 melanoma): 1.45 µM
- TGI (UACC-62 melanoma): 2.86 µM
- GI50 (RPMI-8226 leukemia): 1.72 µM
- TGI (RPMI-8226 leukemia): 27.3 µM
- GI50 (NCI-H23 lung): 0.848 µM
- TGI (NCI-H23 lung): 2.25 µM
- GI50 (HCT-15 colon): 1.67 µM
- TGI (HCT-15 colon): 3.64 µM
- GI50 (CCRF-CEM leukemia): 0.265 µM
- TGI (CCRF-CEM leukemia): > 19.8 µM
- GI50 (MOLT-4 leukemia): 2.31 µM
- TGI (MOLT-4 leukemia): > 21 µM
- GI50 (HOP-92 NSCLC): 3.24 µM
- TGI (HOP-92 NSCLC): 8.92 µM
- GI50 (OVCAR-4 ovarian): 9.12 µM
- TGI (OVCAR-4 ovarian): 23.1 µM
- GI50 (IGROV1 ovarian): 2.35 µM
- GI50 (COLO 205 colon): 9.5 µM
- TGI (COLO 205 colon): 20 µM
- GI50 (MALME-3M melanoma): 1.56 µM
- TGI (MALME-3M melanoma): 3.79 µM
- GI50 (SNB-75 CNS): 4.34 µM
- TGI (SNB-75 CNS): 37.3 µM
- GI50 (UO-31 renal): 3.26 µM
- TGI (UO-31 renal): > 27.4 µM
- GI50 (SK-MEL-5 melanoma): 0.304 µM
- TGI (SK-MEL-5 melanoma): 0.994 µM
- GI50 (KM12 colon): 3.83 µM
- TGI (KM12 colon): 14.3 µM
